Measurements published in patent US9980973B2, “Bicyclic heterocycle compounds and their uses in therapy” (ASTEX THERAPEUTICS LIMITED, priority 2012, dated 2018).
Where a name gives a salt, the structure may show the parent alone. Read-outs that look alike come from different tables or passages of the source.

Assays:
[1] = target: T1, BIR3 domain of human XIAP (Homo sapiens, UniProt P98170); assay: XIAP in vitro competitive displacement binding assay (fluorescence polarization); settings: for inhibition at 0.04 µM: 1 h, PI at 0.04 μM, read-out: Xiap IC50 or PI μM (PI)
T1 construct: BIR3 domain of human XIAP (residues 252-350) fused to a His-tag; His-tag (cleaved yes); made in house; host or cells: Escherichia coli
T1 sequence (P98170 252-350): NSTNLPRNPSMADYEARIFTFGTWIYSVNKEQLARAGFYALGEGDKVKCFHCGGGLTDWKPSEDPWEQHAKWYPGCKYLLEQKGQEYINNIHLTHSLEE

[2] = test system: EVSA-T (human breast carcinoma); assay: Anti-proliferative activity, Alamar Blue assay, EVSA-T; type: cell-based
[3] = Homo sapiens, EVSA-T, 72 h, EVSA-T cells, 72 hours, Alamar Blue, read-out: EVSA-T prolif
[4] = Homo sapiens, EVSA-T, read-out: EC50 in EVSA-T cell line assays
[5] = plain number = IC50, average where more than one data point, read-out: Xiap IC50 or PI μM (IC50)

Compound	inhibition at 0.04 µM [1]	IC50 ([1]; or at least 50% inhibition of the activity at 0.1 μM, read-out: IC50 in the XIAP assay)	EC50 [2, 3]	EC50 [2, 4]	IC50 [1, 5]	EC50 ([2]; EVSA-T cells, 72 hours, Alamar Blue, hydrochloride, read-out: EVSA-T prolif)	EC50 ([2]; EVSA-T cells, 72 hours, Alamar Blue, dihydrochloride, read-out: EVSA-T prolif)
C[C@@H]1CN(CC(=O)N2CC(C)(C)c3ncc(Cc4ccc(F)cc4F)cc32)[C@@H](CN2CCOC[C@@]2(C)CO)CN1 [Example 58, 1-{6-[(2,4-Difluorophenyl)methyl]-3,3-dimethyl-1H,2H,3H-pyrrolo[3,2-b]pyridin-1-yl}-2-[(2R,5R)-2-{[(3R)-3-(hydroxymethyl)-3-methylmorpholin-4-l]methyl}-5-methylpiperazin-1-yl]ethan-1-one, dihydrochloride]	51%	< 0.1 µM	0.7 nM	< 1000 nM			
C[C@@H]1CN(CC(=O)N2CC(C)(C)c3ncc(Cc4ccc(F)cc4)cc32)[C@@H](CN2CCN(C)C(=O)[C@H]2C)CN1 [Example 34, (3R)-4-{[(2R,5R)-1-(2-{6-[(4-Fluorophenyl)methyl]-3,3-dimethyl-1H,2H,3H-pyrrolo[3,2-b]pyridin-1-yl}-2-oxoethyl)-5-methylpiperazin-2-yl]methyl}-1,3-dimethylpiperazin-2-one dihydrochloride]	42%		0.85 nM	< 1000 nM			
C[C@@H]1CN(CC(=O)N2CC(C)(C)c3ncc(Cc4ccc(F)cc4)cc32)[C@@H](CN2CCN(c3ncccn3)C[C@H]2C)CN1 [Example 53, 1-{6-[(4-Fluorophenyl)methyl]-3,3-dimethyl-1H,2H,3H-pyrrolo[3,2-b]pyridin-1-yl}-2-[(2R,5R)-5-methyl-2-{[(2R)-2-methyl-4-(pyrimidin-2-yl)piperazin-1-yl]methyl}piperazin-1-yl]ethan-1-one, dihydrochloride]	59%		0.61 nM	< 1000 nM			
C[C@@H]1CN(CC(=O)N2CC(C)(C)c3ncc(Cc4ccc(F)cc4)cc32)[C@@H](CN2CCOCC2C(F)(F)F)CN1 (single isomer, unassigned) [Example 25, 1-{6-[(4-Fluorophenyl)methyl]-3,3-dimethyl-1H,2H,3H-pyrrolo[3,2-b]pyridin-1-yl}-2-[(2R,5R)-5-methyl-2-{[3-([R or S]trifluoromethyl)morpholin-4-yl]methyl}piperazin-1-yl]ethan-1-one hydrochloride]				< 1000 nM	0.12 µM	1.2 nM	
C[C@@H]1CN(CC(=O)N2CC(C)(C)c3ncc(Cc4ccc(F)cc4)cc32)[C@@H](CN2CCOC[C@]2(C)CO)CN1 [Example 50, 1-{6-[(4-Fluorophenyl)methyl]-3,3-dimethyl-1H,2H,3H-pyrrolo[3,2-b]pyridin-1-yl}-2-[(2R,5R)-2-{[(3S)-3-(hydroxymethyl)-3-methylmorpholin-4-yl]methyl}-5-methylpiperazin-1-yl]ethan-1-one, dihydrochloride]	44%		1.3 nM	< 1000 nM			
C[C@@H]1CN(CC(=O)N2CC(C)(C)c3ncc(C(O)c4cccc(F)c4)cc32)[C@@H](CN2[C@H](C)COC[C@H]2C)CN1 (single isomer, unassigned) [Example 105, 2-[(2R,5R)-2-{[(3R,5R)-3,5-Dimethylmorpholin-4-yl]methyl}-5-methylpiperazin-1-yl]-1-{6-[(R or S)-(3-fluorophenyl)-(hydroxy)methyl]-3,3-dimethyl-1H,2H,3H-pyrrolo[3,2-b]pyridin-1-yl}ethan-1-one dihydrochloride]	60%			< 1000 nM			35 nM
C[C@@H]1CN(CC(=O)N2CC(C)(C)c3ncc(Cc4ccc(F)cc4)cc32)[C@@H](CN2CCCC(F)(F)C2)CN1 [Example 3, 2-[(2R,5R)-2-[(3,3-Difluoropiperidin-1-yl)methyl]-5-methylpiperazin-1-yl]-1-{6-[(4-fluorophenyl)methyl]-3,3-dimethyl-1H,2H,3H-pyrrolo[3,2-b]pyridin-1-yl}ethan-1-one dihydrochloride]	37%		6.8 nM	< 1000 nM			
C[C@@H]1CN(CC(=O)N2CC(C)(C)c3ncc(Cc4ccc(F)cc4)cc32)[C@@H](CN2CCCNC(=O)C2)CN1 [Example 46, 4-{[(2R,5R)-1-(2-{6-[(4-Fluorophenyl)methyl]-3,3-dimethyl-1H,2H,3H-pyrrolo[3,2-b]pyridin-1-yl}-2-oxoethyl)-5-methylpiperazin-2-yl]methyl}-1,4-diazepan-2-one, dihydrochloride]			36 nM	< 1000 nM	0.13 µM		
C[C@@H]1CN(CC(=O)N2CC(C)(C)c3nnc(Cc4ccc(F)cc4F)cc32)[C@@H](CN2[C@H](C)COC[C@H]2C)CN1 [Example 88, 1-{3-[(2,4-Difluorophenyl)methyl]-7,7-dimethyl-5H,6H,7H-pyrrolo[3,2-c]pyridazin-5-yl}-2-[(2R,5R)-2-{[(3R,5R)-3,5-dimethymorpholin-4-yl]methyl}-5-methylpiperazin-1-yl]ethan-1-one dihydrochloride]			0.24 nM	< 1000 nM	0.22 µM		
C[C@@H]1CN(CC(=O)N2CC(C)(C)c3ncc(Cc4ccc(F)cc4)cc32)[C@@H](CN2CCC[C@H]2CO)CN1 [Example 12, 1-{6-[(4-Fluorophenyl)methyl]-3,3-dimethyl-1H,2H,3H-pyrrolo[3,2-b]pyridin-1-yl}-2-[(2R,5R)-2-{[(2S)-2-(hydroxymethyl)pyrrolidin-1-yl]methyl}-5-methylpiperazin-1-yl]ethan-1-one dihydrochloride]			1.6 nM	< 1000 nM	0.15 µM		
C[C@@H]1CN(CC(=O)N2CC(C)(C)c3ncc(Cc4ccc(F)cc4)cc32)[C@@H](CN2CC3CCC(C2)O3)CN1 [Example 18, 1-{6-[(4-Fluorophenyl)methyl]-3,3-dimethyl-1H,2H,3H-pyrrolo[3,2-b]pyridin-1-yl}-2-[(2R,5R)-5-methyl-2-{8-oxa-3-azabicyclo[3.2.1]octan-3-ylmethyl}piperazin-1-yl]ethan-1-one dihydrochloride]	35%		1.8 nM	< 1000 nM			
C[C@@H]1CN(CC(=O)N2CC(C)(C)c3ncc(Cc4ccc(F)cc4)cc32)[C@@H](CN2C[C@H](C)NC(=O)[C@H]2C)CN1 [Example 48, (3R,6S)-4-{[(2R,5R)-1-(2-(6-[(4-Fluorophenyl)methyl]-3,3-dimethyl-1H,2H,3H-pyrrolo[3,2-b]pyridin-1-yl}-2-oxoethyl)-5-methylpiperazin-2-yl]methyl}-3,6-dimethylpiperazin-2-one, dihydrochloride]	49%		4.3 nM	< 1000 nM			
CC1N(C[C@H]2CN[C@H](C)CN2CC(=O)N2CC(C)(C)c3ncc(Cc4ccc(F)cc4)cc32)CCOC1(C)C (stereo partly drawn) [Example 32, 1-{6-[(4-Fluorophenyl)methyl]-3,3-dimethyl-1H,2H,3H-pyrrolo[3,2-b]pyridin-1-yl}-2-[(2R,5R)-5-methyl-2-[(2,2,3-trimethylmorpholin-4-yl)methyl]piperazin-1-yl]ethan-1-one dihydrochloride]	42%		0.7 nM	< 1000 nM			
C[C@@H]1CN(CC(=O)N2CC(C)(C)c3ncc(C(O)c4c(F)cccc4F)cc32)[C@@H](CN2[C@H](C)COC[C@H]2C)CN1 (single isomer, unassigned) [Example 117, 1-{(R or S)-6-[(2,6-Difluorophenyl)(hydroxy)meth-yl]-3,3-dimethyl-1H,2H,3H-pyrrolo[3,2-]pyridin-1-yl}-2-[(2R,5R)-2-{[(3R,5R)-3,5-dimethylmorpholin-4-yl]methyl}-5-methylpiperazin-1-yl]ethan-1-one dihydrochloride]	41%						
